What was measured:
[1] = system: MIA PaCa-2 human pancreatic carcinoma; assay: MIA PaCa-2 CCK-8 proliferation assay; format: cell-based; settings: Homo sapiens, MIA PaCa-2, 72 h, MIA PaCa-2 cells
Method in brief: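 Compounds were tested as a 3-fold series from 20 μM down to 1.02 nM in CCK-8 absorbance assays. The lines used were NCI-H23 and NCI-H358, each with 1 KRAS(G12C) copy, and MIA PaCa-2 with 2 copies. Inhibition was derived relative to DMSO controls, with a no-cell blank subtracted.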

KRAS(G12C) = KRAS(G12C) (Homo sapiens, UniProt P01116, G12C); assay: KRAS(G12C)/SOS1 homogeneous time-resolved fluorescence (HTRF) assay; set-up: purchased Cisbio 63ADK000CB16PEG; settings: absence of GTP, 4° C. for 3 hr, read-out: KRAS (G12C) binding
Chain of KRAS(G12C) (P01116 1-188 isoform P01116-2 G12C): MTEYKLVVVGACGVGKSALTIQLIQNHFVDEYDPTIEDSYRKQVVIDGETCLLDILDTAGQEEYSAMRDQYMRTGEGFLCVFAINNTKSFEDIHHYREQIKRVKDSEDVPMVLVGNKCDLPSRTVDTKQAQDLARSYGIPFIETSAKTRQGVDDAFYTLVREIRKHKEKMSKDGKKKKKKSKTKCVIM
Method in brief: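 Three-hour incubation at 4 °C of 3-fold compound dilutions (lowest 1.02 nM) with KRAS(G12C), SOS1 and detection reagents, GTP absent. Disruption of the KRAS(G12C)/SOS1 complex detected by time-resolved fluorescence.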

HSP90a protein = target: T1, HSP90a protein (Homo sapiens, UniProt P07900); assay: HSP90α-binding fluorescent polarization (FP) assay, BODIPY-labeled RNK04010 probe; settings: FP competition with RNK04010 (BODIPY-labeled), 5 nM, 300 min at 25° C.
T1 construct: purchased BPS Bioscience 50298
Method in brief: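 N-terminal HSP90a construct; tracer 5 nM final (FITC-geldanamycin or BODIPY-RNK04010, a labeled triazolone binder). Compounds 20 μM–5.2 nM, 2.5-fold steps. 25° C, 120 min (FITC) / 300 min (BODIPY). FP readout.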

`C=CC(=O)N1CCN(c2nc(OC[C@@H]3C[C@H](C(=O)NCCc4ccc(-n5c(O)nnc5-c5cc(C(C)C)c(O)cc5O)cc4)CN3C)nc3c2CCN(c2cccc4cccc(Cl)c24)C3)C[C@@H]1CC#N` [Compound 345, (3S,5S)-5-({[7-(8-chloronaphthalen-1-yl)-4-[(3S)-3-(cyanomethyl)-4-(prop-2-enoyl)piperazin-1-yl]-5H,6H,8H-pyrido[3,4-d]pyrimidin-2-yl]oxy}methyl)-N-(2-{4-[3-(2,4-dihydroxy-5-isopropylphenyl)-5-hydroxy-1,2,4-triazol-4-yl]phenyl}ethyl)-1-methylpyrrolidine-3-carboxamide] was tested. Which EC50 [1] did it give?
Its EC50 is 100 to 1000 nM.

And the IC50 (KRAS(G12C))?
The IC50 was under 100 nM.

And the IC50 (HSP90a protein)?
Its IC50 is under 100 nM.

With `C=CC(=O)N1CCN(c2nc(OC[C@@H]3CC[C@H](COC(=O)NCc4ccc(-n5c(O)nnc5-c5cc(CC)c(O)cc5O)cc4)N3C)nc3c2CCN(c2cccc4cccc(Cl)c24)C3)C[C@@H]1CC#N` [Compound 296, ((2R,5S)-5-(((4-((S)-4-acryloyl-3-(cyanomethyl)piperazin-1-yl)-7-(8-chloronaphthalen-1-yl)-5,6,7,8-tetrahydropyrido[3,4-d]pyrimidin-2-yl)oxy)methyl)-1-methylpyrrolidin-2-yl)methyl4-(3-(5-ethyl-2,4-dihydroxyphenyl)-5-hydroxy-4H-1,2,4-triazol-4-yl)benzylcarbamate] as the compound, how does the EC50 [1] read?
The EC50 was over 1000 nM.

And the IC50 (KRAS(G12C))?
Its IC50 is 100 to 1000 nM.

And the IC50 (HSP90a protein)?
The IC50 was under 100 nM.

Which EC50 [1] does the source give for `C=CC(=O)N1CCN(c2nc(OC[C@@H]3C[C@H](C(=O)N4CCN(Cc5ccc(-n6c(C(=O)NCCN7CCN(S(C)(=O)=O)CC7)nnc6-c6cc(C(C)C)c(O)cc6O)cc5)CC4)CN3C)nc3c2CCN(c2cccc4cccc(Cl)c24)C3)C[C@@H]1CC#N` [Compound 344, 4-[4-({4-[(3S,5S)-5-({[7-(8-chloronaphthalen-1-yl)-4-[(3S)-3-(cyanomethyl)-4-(pr-op-2-enoyl)piperazin-1-yl]-5H,6H,8H-pyrido[3,4-d]pyrimidin-2-yl]oxy}methyl)-1-methylpyrrolidine-3-carbonyl]piperazin-1-yl}methyl)phenyl]-5-(2,4-dihydroxy-5-isopropylphenyl)-N-[2-(4-methanesulfonylpiperazin-1-yl)ethyl]-1,2,4-triazole-3-carboxamide] here?
The EC50 was 100 to 1000 nM.

What about the IC50 (KRAS(G12C)) of the same compound?
Its IC50 is under 100 nM.

And the IC50 (HSP90a protein)?
Its IC50 is under 100 nM.

Which EC50 [1] does the source give for `C=CC(=O)N1CCN(c2nc(OC[C@@H]3CN(C(=O)C4CCN(Cc5ccc(-n6c(O)nnc6-c6cc(C(C)C)c(O)cc6O)cc5)CC4)CCN3C)nc3c2CCN(c2cccc4cccc(Cl)c24)C3)C[C@@H]1CC#N` [Compound 202, 2-((S)-1-acryloyl-4-(7-(8-chloronaphthalen-1-yl)-2-(((S)-4-(1-(4-(3-(2,4-dihydroxy-5-isopropylphenyl)-5-hydroxy-4H-1,2,4-triazol-4-yl)benzyl)piperidine-4-carbonyl)-1-methylpiperazin-2-yl)methoxy)-5,6,7,8-tetrahydropyrido[3,4-d]pyrimidin-4-yl)piperazin-2-yl)acetonitrile, trifluoroacetic acid] here?
The EC50 was over 1000 nM.

And the IC50 (KRAS(G12C))?
The IC50 was 100 to 1000 nM.

What about the IC50 (HSP90a protein) of the same compound?
The IC50 was under 100 nM.

Which results are given for `C=CC(=O)N1CCN(c2nc(OCC3CN(C(=O)C4CCN(Cc5ccc(-n6c(O)nnc6-c6cc(C(C)C)c(O)cc6O)cc5)CC4)C3)nc3c2CCN(c2cccc4cccc(Cl)c24)C3)C[C@@H]1CC#N` [Compound 188, (S)-2-(1-acryloyl-4-(7-(8-chloronaphthalen-1-yl)-2-((1-(1-(4-(3-(2,4-dihydroxy-5-isopropylphenyl)-5-hydroxy-4H-1,2,4-triazol-4-yl)benzyl)piperidine-4-carbonyl)azetidin-3-yl)methoxy)-5,6,7,8-tetrahydropyrido[3,4-d]pyrimidin-4-yl)piperazin-2-yl)acetonitrile, trifluoroacetic acid]?
EC50 [1]: 100 to 1000 nM; IC50 (KRAS(G12C)): > 1000 nM; IC50 (HSP90a protein): < 100 nM

Which results are given for `C=CC(=O)N1CCN(c2nc(OC[C@@H]3C[C@H](C(=O)N4CCN(Cc5ccc(-n6c(O)nnc6-c6cc(C(C)C)c(O)cc6O)cc5)CC4)CN3C)nc3c2CCN(c2cccc4cccc(Cl)c24)C3)C[C@@H]1CC#N` [Compound 340, 2-[(2S)-4-[7-(8-chloronaphthalen-1-yl)-2-{[(2S,4S)-4-[4-({4-[3-(2,4-dihydroxy-5-isopropylphenyl)-5-hydroxy-1,2,4-triazol-4-yl]phenyl}methyl)piperazine-1-car-bonyl]-1-methylpyrrolidin-2-yl]methoxy}-5H,6H,8H-pyrido[3,4-d]pyrimidin-4-yl]-1-(prop-2-enoyl)piperazin-2-yl]acetonitrile]?
EC50 [1]: 100 to 1000 nM; IC50 (KRAS(G12C)): < 100 nM; IC50 (HSP90a protein): < 100 nM

Which EC50 [1] does the source give for `C=CC(=O)N1CCN(c2nc(OCCN3CCN(C(=O)C4CCN(Cc5ccc(-n6c(C(=O)NCC(F)(F)F)nnc6-c6cc(C)c(O)cc6O)cc5)CC4)CC3)nc3c2CCN(c2cccc4cccc(Cl)c24)C3)C[C@@H]1CC#N` [Compound 222, (S)-4-(4-((4-(4-(2-((4-(4-acryloyl-3-(cyanomethyl)piperazin-1-yl)-7-(8-chloronaphthalen-1-yl)-5,6,7,8-tetrahydropyrido[3,4-d]pyrimidin-2-yl)oxy)ethyl)piperazine-1-carbonyl)piperidin-1-yl)methyl)phenyl)-5-(2,4-dihydroxy-5-methylphenyl)-N-(2,2,2-trifluoroethyl)-4H-1,2,4-triazole-3-carboxamide] here?
Its EC50 is 100 to 1000 nM.

And the IC50 (KRAS(G12C))?
The IC50 was 100 to 1000 nM.

What about the IC50 (HSP90a protein) of the same compound?
Its IC50 is under 100 nM.

Which results are given for `C=CC(=O)N1CCN(c2nc(OCCN3CCN(Cc4cc(C(C)C)c(O)cc4O)CC3)nc3c2CCN(c2cccc4cccc(Cl)c24)C3)C[C@@H]1CC#N` [Compound 216, (S)-2-(1-acryloyl-4-(7-(8-chloronaphthalen-1-yl)-2-(2-(4-(2,4-dihydroxy-5-isopropylbenzyl)piperazin-1-yl)ethoxy)-5,6,7,8-tetrahydropyrido[3,4-d]pyrimidin-4-yl)piperazin-2-yl)acetonitrile]?
EC50 [1]: 100 to 1000 nM; IC50 (KRAS(G12C)): < 100 nM; IC50 (HSP90a protein): 100 to 1000 nM

`C=CC(=O)N1CCN(c2nc(OC[C@@H]3C[C@H](NC(=O)C4CCN(Cc5ccc(-n6c(O)nnc6-c6cc(C(C)C)c(O)cc6O)cc5)CC4)CN3C)nc3c2CCN(c2cccc4cccc(Cl)c24)C3)C[C@@H]1CC#N` [Compound 214, N-((3S,5S)-5-(((4-((S)-4-acryloyl-3-(cyanomethyl)piperazin-1-yl)-7-(8-chloronaphthalen-1-yl)-5,6,7,8-tetrahydropyrido[3,4-d]pyrimidin-2-yl)oxy)methyl)-1-methylpyrrolidin-3-yl)-1-(4-(3-(2,4-dihydroxy-5-isopropylphenyl)-5-hydroxy-4H-1,2,4-triazol-4-yl)benzyl)piperidine-4-carboxamide] was tested. Which EC50 [1] did it give?
The EC50 was 100 to 1000 nM.

And the IC50 (KRAS(G12C))?
Its IC50 is under 100 nM.

And the IC50 (HSP90a protein)?
The IC50 was under 100 nM.

`C=CC(=O)N1CCN(c2nc(OC[C@@H]3C[C@@H](NC(=O)C4CCN(Cc5ccc(-n6c(O)nnc6-c6cc(C)c(O)cc6O)cc5)CC4)CN3C)nc3c2CCN(c2cccc4cccc(Cl)c24)C3)C[C@@H]1CC#N` [Compound 198, N-((3R,5S)-5-(((4-((S)-4-acryloyl-3-(cyanomethyl)piperazin-1-yl)-7-(8-chloronaphthalen-1-yl)-5,6,7,8-tetrahydropyrido[3,4-d]pyrimidin-2-yl)oxy)methyl)-1-methylpyrrolidin-3-yl)-1-(4-(3-(2,4-dihydroxy-5-methylphenyl)-5-hydroxy-4H-1,2,4-triazol-4-yl)benzyl)piperidine-4-carboxamide, trifluoroacetic acid] was tested. Which EC50 [1] did it give?
The EC50 was 100 to 1000 nM.

And the IC50 (KRAS(G12C))?
The IC50 was 100 to 1000 nM.

What about the IC50 (HSP90a protein) of the same compound?
Its IC50 is under 100 nM.

— patent US20230391772A1, “METHODS AND COMPOSITIONS FOR TARGETED PROTEIN DEGRADATION” (Ranok Therapeutics (Hangzhou) Co. Ltd., priority 2020, published 2023)
